From paper PMC11736000, “Structural and functional analysis of a bile salt hydrolase from the bison microbiome” (The Journal of Biological Chemistry, 2024)

Target: T1, bile salt hydrolase from Arthrobacter citreus EINP1 (BSHAc) (Arthrobacter citreus, UniProt A0ABZ2ZT44)
T1 construct: gene bsh; C-terminally hexahistidine-tagged recombinant BSHAc; NCBI WP_342023006.1
Assay: […] Å crystal structure of the covalent complex; time-dependent inactivation kinetics of the purified enzyme (kinact/KI […] ^-1s^-1)
Format: biochemical

T1 sequence (A0ABZ2ZT44 entry or part of it): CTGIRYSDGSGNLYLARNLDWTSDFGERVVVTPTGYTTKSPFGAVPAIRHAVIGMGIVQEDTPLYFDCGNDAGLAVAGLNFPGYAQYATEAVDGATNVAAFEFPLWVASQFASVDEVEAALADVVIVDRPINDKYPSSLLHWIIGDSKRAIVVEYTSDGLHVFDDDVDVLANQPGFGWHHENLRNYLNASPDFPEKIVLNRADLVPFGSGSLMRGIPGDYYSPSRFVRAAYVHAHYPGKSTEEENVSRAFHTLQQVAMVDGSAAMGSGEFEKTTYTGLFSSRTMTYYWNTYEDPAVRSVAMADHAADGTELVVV

C[C@H](CCC(=O)CF)[C@H]1CC[C@H]2[C@@H]3CC[C@@H]4C[C@H](OS(=O)(=O)O)CC[C@]4(C)[C@H]3CC[C@]12C [AAA-10]
KI (inactivation): 23 µM
